In one data set the test system is collagen I. The experiment in a line: Synthesis of collagen I in human fibroblasts by ELISA dosage. Format: cell-based. The note with it: normal human fibroblasts; retinol at 10^-5 M. Here is the method:
The study is conducted on human fibroblasts by ELISA dosage. The fibroblasts are incubated in the presence or not of the active principle, of the fractions or of retinol at 10^−5 M. The results are shown in FIG. 2. Tests have been carried out on normal human fibroblasts by ELISA dosage. The fibroblasts were treated with retinol at 10^−5 M or with the active principle at 0.1%, 0.25% and 0.5%.
In general terms: ELISA stands for enzyme-linked immunosorbent assay.

The subject of the next data set is cutaneous micro-relief. The experiment in a line: Smoothing effect on cutaneous micro-relief of forearms in volunteers (profilometer). Format: in vivo, human. The conditions noted are these: active principle 4% or retinol 0.15% in emulsion, bi-daily for 28 days, against placebo. Here is the method:
The active principle is formulated at 4% in emulsion, and retinol is formulated at 0.15% in an emulsion. The 2 formulations are tested on 2 groups of volunteers, against a placebo. The tests are carried out and the influence of the active principle or of retinol on the appearance of cutaneous micro-relief, after bi-daily application for 28 days. The analyses are carried out by observation of prints of the cutaneous micro-relief with the help of a profilometer associated with an image analyzer. The zones in question in this study are cutaneous zones of the forearms. The observed parameter is the mean rugosity of the micro-contour.

In another data set the test system is skin. The experiment in a line: Irritating skin reactions in volunteers of the in vivo studies. The note with it: topical emulsion (active principle 4%, retinol 0.15%), bi-daily for 28 days. Further details: species or system human. The protocol:
The active principle is formulated at 4% in an emulsion. Retinol is formulated at 0.15% in an emulsion.
The 2 formulae are tests and 2 groups of volunteers, against a placebo.
The tests have shown the influence of the active principle or of retinol on the appearance of crows-feet wrinkles, after bi-daily application for 28 days.
The active principle is formulated at 4% in emulsion, and retinol is formulated at 0.15% in an emulsion.
The 2 formulations are tested on 2 groups of volunteers, against a placebo.
The tests are carried out and the influence of the active principle or of retinol on the appearance of cutaneous micro-relief, after bi-daily application for 28 days.

Turning to `CC1=C(/C=C/C(C)=C/C=C/C(C)=C/CO)C(C)(C)CCC1` [retinol], the “increase of the synthesis of collagen I” value in the data set with collagen I stood at 171%. In addition, in the data set with cutaneous micro-relief, the “smoothing effect on the micro-contour (mean rugosity) relative to the comparison” value worked out at 8%. Moreover, in the data set on skin, the irritating skin reactions entry is given as “reactions of the irritating skin type”.

Values taken from patent US20080249064A1, “Activities of an active principle obtained from powdered alfalfa seeds (Medicago sativa), active principle used and process of obtaining the same” (SOCIETE INDUSTRIELLE LIMOUSINE D'APPLICATION BIOLOGIQUE …, priority 2004, published 2008).
